From patent US20140275257A1, “N-ACETYL CYSTEINE COMPOSITIONS IN THE TREATMENT OF SYSTEMIC LUPUS ERYTHEMATOSUS” (Foundation for the State University of New York, priority 2013, published 2014)

Tests used:
Type in all cases: in vivo, human
SLE patients [1] = assay: SLE Disease Activity Index (SLEDAI) in NAC pilot study
From the text: SLEDAI offers an assessment tool for assessing disease activity in SLE. Twenty-four features that are attributed to lupus are listed, with a weighted score given to any one that is present. The more serious manifestations (such as renal, neurologic, and vasculitis) are weighted more than others (such as cutaneous manifestations). The maximum possible score is 105. (Lam, G. K. W. and Petri, M., “Assessment of systemic lupus erthematosus,” Clin. Exp. Rheumatol., 23 (Supp. 39): S120-S132 (2005)).
A complete physical examination of the cardiovascular, respiratory, gastrointestinal, musculoskeletal, neurological systems, skin, head, neck, sinuses, nasal and oral cavities were performed at each visit. SLE disease activity was assessed by using the British Isles Lupus Assessment Group (BILAG) (Isenberg, D. A. et al., “BILAG 2004. Development and initial validation of an updated version of the British Isles Lupus Assessment Group's disease activity index for patients with systemic lupus erythematosus,” Rheumatology 44(7): 902-906 (2005)) and SLE Disease Activity Index (SLEDAI) (Bombardier, C. et al., “Derivation of the SLEDAI. A disease activity index for lupus patients,” Arth. Rheum., 35: 630-640 (1992)). The concurrent use and dosage of prednisone and other medications were documented.
(§1) Lupus disease activity was measured by SLEDAI and BILAG and fatigue was evaluated by FAC at baseline (visit 1) as well as monthly during a 3-month intervention (visits 2-4) and after a 1-month washout period (visit 5).
Overall clinical effectiveness of NAC relative to placebo was analyzed with multilevel modeling as implemented in the STATA routine XTMIXED (from StataCorp, College Station, Tex.), with the three nested levels being drug group, subject within drug group and study visit within subject. All models included fixed effects for drug group, study visit and the drug group by study visit interaction along with random intercepts at each design level. […] The reduction in lupus disease activity SLEDAI scores was greater for the NAC than placebo group, as indicated by a significant visit by drug interaction (z=−2.14, p=0.033). The reduction in BILAG scores was also greater for NAC than placebo group. The overall effect was statistically significant as indicated by a significant visit by drug interaction (z=−2.62, p=0.009). Two tailed paired t-test was used to assess the effects of placebo and of each and all NAC doses on clinical indices and biomarkers recorded on visits 2-5 relative to visit 1; p<0.05 was considered significant. Patients and controls were compared with two-tailed unpaired t-test.

SLE patients [2] = assay: Fatigue Assessment Scale (FAS) in NAC pilot study; conditions: for FAS: all NAC doses combined, visit 1 28.5
From the text: Fatigue, a nonspecific symptom that is highly prevalent among patients in primary care, is not only an important component of many diseases or disorders, including SLE, but can also play a substantial role in healthy populations. Fatigue is considered the most disabling symptom in a majority of SLE patients. (Krupp, L. B. et al., “A study of fatigue in systemic lupus erythematosus,” J. Rheumatol., 17: 1450-1452 (1990)). The Fatigue Assessment Scale (FAS) is a 10-item unidimensional subjective fatigue scale that measures chronic fatigue. For each statement, one chooses one out of five answer categories varying from “never” to “always: 1=never; 2=sometimes; 3=regularly; 4=often; and 5=always. (Michielsen, H. J. et al., “Psychometric qualities of a brief self-rated fatigue measure: The Fatigue Assessment Scale,” Journal of Psychosomatic Research, 54: 345-352 (2003)).
Fatigue was assessed by using a validated Fatigue Assessment Scale (FAS), a self-questionnaire that provides a subjective measurement of fatigue severity and has shown to have a high degree of internal consistency, validity, and sensitivity to changes in clinical condition, as described in Michielsen, H. J. et al., “Psychometric qualities of a brief self-rated fatigue measure: The Fatigue Assessment Scale,” J. Psychosom. Res., 54(4): 345-352 (2003), the entire content of which is incorporated by reference herein.
as §1

DN T cells = assay: T-cell subset analysis by flow cytometry (DN T cells); conditions: after 3 months; baseline 6.2±0.5%; p=0.043
Method: Unstimulated cells and cells stimulated with CD3/CD28 for 16 h were examined and cell death pathway selection in T cells was measured by concurrent staining with annexin V-Alexa 647 and propidium iodide (PrI) as well as cell type-specific antigens. T-cell subsets were analyzed by staining with antibodies to CD4, CD8, and CD25. B cells were identified by CD 19 staining

CC(=O)N[C@@H](CS)C(=O)O [NAC, N-acetyl-L-cysteine]
patients with significant improvement (SLEDAI) (SLE patients [1]; Dose 1 group, placebo 2 of 9): 3 of 9 | patients with significant improvement (SLEDAI) (SLE patients [1]; Dose 2 group, placebo 2 of 9): 4 of 9 | patients with significant improvement (SLEDAI) (SLE patients [1]; Dose 3 group, improvements of SLEDAI of 3 or more, p=0.0406 relative to placebo): 5 of 6 | effect on SLE disease activity, SLEDAI (SLE patients [1]; NAC dose 1 (1.2 g/day)): did not influence | SLEDAI (SLE patients [1]; NAC doses 2 and 3 combined, visit 2 (1 month), baseline 5.78, p=0.0007): 3.6 | SLEDAI (SLE patients [1]; NAC doses 2 and 3 combined, visit 3 (2 months), baseline 5.78, p=0.0009): 4.0 | SLEDAI (SLE patients [1]; NAC doses 2 and 3 combined, visit 4 (3 months), baseline 5.78, p=0.0030): 4.9 | SLEDAI (SLE patients [1]; NAC doses 2 and 3 combined, visit 5 (after 1 month washout), baseline 5.78, p=0.0046): 4.4 | SLEDAI (SLE patients [1]; all patients treated with NAC, after 1-month (visit 2), baseline 5.3, p=0.0013): 3.5 | SLEDAI (SLE patients [1]; all patients treated with NAC, after 2-month treatment (visit 3), baseline 5.3, p=0.048): 3.7 | reduction in SLEDAI relative to placebo (multilevel modeling) (SLE patients [1]; visit by drug interaction, XTMIXED z=−2.14, p=0.033): greater in the NAC than placebo group | effect on SLE disease activity, FAS (SLE patients [2]; NAC dose 1 (1.2 g/day)): did not influence | effect on FAS (SLE patients [2]; NAC dose 2 (2.4 g/day) and dose 3 (4.8 g/day), after 2 months (p=0.002) and 3 months (p=0.004)): reduced | effect on FAS relative to placebo (mixed model analysis) (SLE patients [2]; NAC dosing group 2, XTMIXED z=−2.08, p=0.038): reduction | FAS (SLE patients [2]; visit 3 (2 months), p=0.0006): 24.1 | FAS (SLE patients [2]; visit 4 (3 months), p=0.005): 23.9 | FAS (SLE patients [2]; visit 5 (after 1 month washout), p=0.034): 24.8 | DN T-cell frequency (DN T cells): 5.3±0.5%
